In patent publication US7115658B2 (priority 2002, dated 2006):
Read-outs that look alike come from different tables or passages of the source.

How the values were obtained:
[1] = target: T1, NS5B, the RNA-dependent RNA polymerase (Hepatitis C virus genotype 1b, UniProt P26663); conditions: Ishii et al. 1999; cited from earlier work
T1 construct: NS5B, the RNA-dependent RNA polymerase, is also a useful viral target

[2] = target: T2, Recombinant HCV polymerase (Hepatitis C virus genotype 1b, UniProt P26663); assay: HCV Polymerase Inhibition Assay; type: biochemical; conditions: primer/template-directed transcription, 30 minutes at 30° C.
T2 construct: 2.5 pmoles (0.15 μg) HCV polymerase protein
T2 sequence (P26663 2420-3010): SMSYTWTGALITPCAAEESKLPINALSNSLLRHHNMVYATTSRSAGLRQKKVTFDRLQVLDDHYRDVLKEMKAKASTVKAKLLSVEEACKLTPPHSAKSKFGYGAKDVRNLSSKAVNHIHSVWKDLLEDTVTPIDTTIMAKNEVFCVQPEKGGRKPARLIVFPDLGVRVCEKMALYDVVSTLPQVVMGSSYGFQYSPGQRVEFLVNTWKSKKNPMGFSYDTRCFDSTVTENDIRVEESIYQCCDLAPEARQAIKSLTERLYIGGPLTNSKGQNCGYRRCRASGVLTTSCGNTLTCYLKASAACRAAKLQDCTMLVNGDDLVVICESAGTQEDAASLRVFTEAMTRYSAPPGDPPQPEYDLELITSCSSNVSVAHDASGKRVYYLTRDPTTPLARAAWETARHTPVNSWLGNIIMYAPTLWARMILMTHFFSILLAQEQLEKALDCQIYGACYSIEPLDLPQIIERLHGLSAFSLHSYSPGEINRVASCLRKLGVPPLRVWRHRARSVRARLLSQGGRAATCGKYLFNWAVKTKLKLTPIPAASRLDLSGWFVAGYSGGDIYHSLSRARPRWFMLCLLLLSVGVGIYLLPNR
Outline: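 Recombinant genotype 1b polymerase (2.5 pmol) extended biotin-dG12 on poly(rC)300 with 1 μM GTP plus α-32P-GTP, pH 7.2, 30 min at 30 °C, 1% DMSO final; DE-filter-bound product counted. IC50 fitted from triplicate cpm, refitted with enzyme-concentration (30 nM) tight-binding equation when below 200 nM.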

[3] = system: pestivirus; conditions: Baginski et al. 2000; cited from earlier work

T1 sequence (P26663 2420-3010): as above

Structure (SMILES)	Inhibition of RdRp activity [1]	IC50 ([2]; category symbol) [µM]	melting point [°C]	IC50 ([2]; read-out: IC50(μM) Category) [µM]	inhibitor of pestivirus replication [3]
Nc1ccn([C@@H]2CS[C@H](COP(=O)(O)OP(=O)(O)OP(=O)(O)O)O2)c(=O)n1 [3TC; lamivudine triphosphate]	Inhibition of RdRp activity	–	–	–	–
Cc1cc(SC2=C(O)CC(CCc3ccc(O)cc3)(C3CCCC3)OC2=O)c(C(C)(C)C)cc1OS(=O)(=O)N1CCN(C)CC1 (stereo not shown) [Example 147]	–	1 to 10	163 to 165	–	–
Cc1cc(SC2=C(O)CC(CCc3ccc(O)cc3)(C3CCCC3)OC2=O)c(C(C)(C)C)cc1OCCO (stereo not shown) [Example 148, 3-[2-tert-butyl-4-(2-hydroxy-ethoxy)-5-methyl-phenylsulfanyl]-6-cyclopentyl-4-hydroxy-6-[2-(4-hydroxy-phenyl)-ethyl]-5,6-dihydro-pyran-2-one]	–	1 to 10	113 to 115	–	–
CCNS(=O)(=O)Oc1cc(C(C)(C)C)c(SC2=C(O)CC(CCc3cccc(O)c3)(C3CCCC3)OC2=O)cc1C (stereo not shown) [Example 149, Ethyl-sulfamic acid 5-tert-butyl-4-{6-cyclopentyl-4-hydroxy-6-[2-(3-hydroxy-phenyl)-ethyl]-2-oxo-5,6-dihydro-2H-pyran-3-ylsulfanyl}-2-methyl-phenyl ester]	–	> 50	69 to 72	–	–
CCCN(C1=C(O)C[C@@](CCc2cccc(O)c2)(C2CCCC2)OC1=O)c1ccccc1 [Example 155, 6-(S)-Cyclopentyl-4-hydroxy-6-[2-(3-hydroxy-phenyl)-ethyl]-3-(phenyl-propyl-amino)-5,6-dihydro-pyran-2-one]	–	1 to 10	74 to 76	–	–
CCCN(C1=C(O)CC(CCc2ccc(O)cc2)(C2CCCC2)OC1=O)c1ccccc1 (stereo not shown) [Example 159, 6-Cyclopentyl-4-hydroxy-6-[2-(4-hydroxy-phenyl)-ethyl]-3-(phenyl-propyl-amino)-5,6-dihydro-pyran-2-one]	–	1 to 10	95	–	–
CCN(C1=C(O)CC(CCc2ccc(O)cc2)(C2CCCC2)OC1=O)c1ccccc1 (stereo not shown) [Example 160, Cyclopentyl-(ethyl-phenyl-amino)-hydroxy-[2-(4-hydroxy-phenyl)-ethyl]-5,6-dihydro-pyran-2-one]	–	1 to 10	83 to 85	–	–
O=C1OC(CCc2ccc(O)cc2)(C2CCCC2)CC(O)=C1N(c1ccccc1)c1ccccc1 (stereo not shown) [Example 161, Cyclopentyl-diphenylamino-hydroxy-[2-(4-hydroxy-phenyl)-ethyl]-5,6-dihydro-pyran-2-one]	–	1 to 10	93 to 94	–	–
Cc1cc(SC2=C(O)CC(C3CCCC3)(C3CCCC3)OC2=O)c(C(C)(C)C)cc1N [Example 179, 3-(4-Amino-2-tert-butyl-5-methyl-phenylsulfanyl)-6,6-dicyclopentyl-4-hydroxy-5,6-dihydro-pyran-2-one]	–	–	163 to 165	15.5	–
Cc1cc(SC2=C(O)CC(C3CCCC3)(C3CCCC3)OC2=O)c(C(C)(C)C)cc1CO [Example 180, 3-(2-tert-butyl-4-hydroxymethyl-5-methyl-phenylsulfanyl)-6,6-dicyclopentyl-4-hydroxy-5,6-dihydro-pyran-2-one]	–	–	158 to 160	15	–
Cc1cc(SC2=C(O)CC(C3CCCC3)(C3CCCC3)OC2=O)c(C(C)(C)C)cc1OCCO [Example 181, 3-[2-tert-butyl-4-(2-hydroxy-ethoxy)-5-methyl-phenylsulfanyl]-6,6-dicyclopentyl-4-hydroxy-5,6-dihydro-pyran-2-one]	–	–	100 to 102	36	–
Cc1cc(SC2=C(O)CC(C3CCCC3)(C3CCCC3)OC2=O)c(C(C)(C)C)cc1OS(=O)(=O)c1cn(C)cn1 [Example 182, 1-methyl-1H-imidazole-4-sulfonic acid 5-tert-butyl-4-(6,6-dicyclopentyl-4-hydroxy-2-oxo-5,6-dihydro-2H-pyran-3-ylsulfanyl)-2-methyl-phenyl ester]	–	10 to 50	143 to 145	–	–
CCCN(C1=C(O)CC(C2CCCC2)(C2CCCC2)OC1=O)c1cccc(NS(=O)(=O)c2ccccn2)c1 [Example 184, Pyridine-2-sulfonic acid {3-[(6,6-dicyclopentyl-4-hydroxy-2-oxo-5,6-dihydro-2H-pyran-3-yl)-propyl-amino]-phenyl}-amide]	–	10 to 50	105 to 107	–	–
CCCN(C1=C(O)CC(C2CCCC2)(C2CCCC2)OC1=O)c1cccc(NS(=O)(=O)c2cccs2)c1 [Example 186, Thiophene-2-sulfonic acid {3-[(6,6-dicyclopentyl-4-hydroxy-2-oxo-5,6-dihydro-2H-pyran-3-yl)-propyl-amino]-phenyl}-amide]	–	10 to 50	92 to 95	–	–
CCCN(C1=C(O)CC(C2CCCC2)(C2CCCC2)OC1=O)c1cccc(N)c1 [Example 187, 3-[(3-Amino-phenyl)-propyl-amino]-6,6-dicyclopentyl-4-hydroxy-5,6-dihydro-pyran-2-one]	–	> 50	173 to 175	–	–
CCCN(CCC)CCSc1nnc2c(n1)[nH]c1ccccc12 [VP32947, 3-[((2-dipropylamino)ethyl)thio]-5H-1,2,4-triazino[5,6-b]indole]	–	–	–	–	potent inhibitor
O=C(O)CP(=O)(O)O [phosphonoacetic acid, reference compound]	Inhibition of RdRp activity	–	–	–	–
